Results on two compounds are retold here after patent publication US20250108036A1, “COMPOSITIONS FOR REMOVING SENESCENT CELLS AND USES THEREOF” (LIFECEUTIX CO., LTD., priority 2021, published 2025).

The test system of assay [1] is MMP3, IL1β, MMP12, IL6, MMP13. The experiment in a line: SASP mRNA qRT-PCR in organ tissues of naturally aged mice (Example 7-6). The assay is classed as in vivo, C57BL6J mice. The settings on record: LX-112 70 mg/kg oral daily 21 days, aged untreated = 100%. Here is the method:
After 22-month-old female C57BL6J mice (purchased from KRIBB Laboratory Animal Resource Center) were adapted to the experimental environment for one week, the aged mice were randomized into an experimental group and a control group. 8-week-old mice that were not aged were used as controls. LX-112 was mixed with 0.5% CMC-Na solution (purchased from Sigma) and administered orally at a concentration of 70 mg/kg daily for 21 days. The control group was administered only the solution in the same volume. After drug administration was completed, the method described in each Example below was performed.
Using cDNA synthesized in the same manner as in Example 7-2, qRT-PCR was performed and analyzed for MMP3, IL1β, MMP12, IL6, and MMP13, which are aging-related inflammation and fibrosis secretory factors (SASP). […] Table 31 calculates the mRNA amount of each factor after senescence was induced as 100% and compared it with the mRNA amount of each factor after treatment with LX-112.
For orientation: Real-time PCR tracks product formation cycle by cycle.

Assay [2] can be described thus: Oil Red O staining of liver of obesity-aged mice (Example 9-5). It counts as in vivo, C57BL6J mice. The settings on record: stained area, LX-112 70 mg/kg oral daily 21 days, DIO without LX = 100%. The protocol:
15-week-old male C57BL6J mice (purchased from Jackson Laboratories), whose obesity was induced by a high-fat diet, were adapted to the experimental environment for one week, and then the mice were randomized into an experimental group and a control group. LX-112 was mixed with 0.5% CMC-Na solution (purchased from Sigma) and administered orally at a concentration of 70 mg/kg daily for 21 days. The control group was administered only the solution in the same volume. After drug administration was completed, the method described in each Example below was performed. Mice were sacrificed and the weight of adipose tissue in each area was measured.
Table 60 calculates the stained area of Oil Red O after aging induced by obesity as 100% and compares it with the stained area of Oil Red O after treatment with LX-112.

For the next assay, the system named is HMGB1. The assay can be described thus: HMGB1 ELISA in culture medium of senescent foreskin cells (Example 10, Table 62). The assay is classed as cell-based, human. The protocol: After 6 hours, the amounts of HMGB1 and HMGN1 secreted into the cell culture medium were measured using an enzyme-linked immunosorbent assay (ELISA Kit, purchased from AssayGenie).
A general note: ELISA stands for enzyme-linked immunosorbent assay.

The subject of a further assay is SAOS-2. The experiment in a line: CellTiter-Glo cell viability of senescent SAOS-2 cancer cells (Example 2-2). The assay is classed as cell-based, human. To be noted: DOX → LX (LX-112 5 μM). Here is the method: The standard for treating various cancers, including osteosarcoma, is repeated chemotherapy. Accordingly, aging was induced in SAOS-2 in the same manner as in Example 2-1, and then (i) treated again with doxorubicin (DOX→DOX) or (ii) treated with the LX-112 (5 μM) composition (DOX→LX-112).
A general note: Cellular ATP, detected with luciferase, serves as a proxy for viable cell number.

The test system of another assay is p16, MMP3, IL6. The assay can be described thus: p16, MMP3, IL6 mRNA qRT-PCR in groin fat of obese mice given senescent cells killed by test compounds (Example 16, Table 72). To be noted: obese mice administered senescent cells whose death was induced by the test compound. It counts as in vivo, C57BL6J mice. The method in brief: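 Mouse groin-fat preadipocytes made senescent with 250 nM doxorubicin for 24 h plus 21 days, killed by test compounds, and given subcutaneously (5×10^5 cells) to female C57BL6J mice. Senescent preadipocytes then given i.p., followed by 8-week high-fat diet. Groin-fat p16, MMP3 and IL6 mRNA measured by qRT-PCR as % of mice without killed-cell administration.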

`O=c1c2ccccc2[se]n1CCn1[se]c2ccccc2c1=O` [LX-112, 1,2-[bis(1,2-benzisoselenazolone-3(2H)-ketone)]ethane]: in assay [1], the “mRNA (%) Kidney IL1β” value was 67 (±3.9) %, the “mRNA (%) Liver MMP3” value is 75 (±13) %, the “mRNA (%) Lung MMP 12” value is on record as 81 (±13) % and the “mRNA (%) Muscle IL6” value is 65 (±21) %. Moreover, in assay [1], the “mRNA (%) Skin MMP3” value is recorded as 92 (±6) %, the “mRNA (%) Skin MMP12” value is 78 (±14) % and the “mRNA (%) Skin MMP13” value is recorded as 95 (±2) %. For the same compound, the “Oil Red O (%)” value in assay [2] is 74 (±7.3) %. In the assay on HMGB1 (10 μM, culture medium after 6 hours, senescent foreskin cells), the “HMGB1 (pg/ml)” value is on record as 454.9 (±22.4) pg/ml. Besides, the “HMGB1 secreted in the culture medium from dying senescent cells” value with HMGB1 (ABT-263 1 μM or LX-112 10 μM, 6 hours) is recorded as “little change”. The “Survival (%)” value in the assay with SAOS-2 (3 d) was 35 (±4) %. For the same compound, the “Survival (%)” value in the assay with SAOS-2 (7 d) is listed as 14 (±5) %.

With `COC(=O)c1ccc([C@H]2c3[nH]c4ccccc4c3C[C@H](C(=O)OC)N2C(=O)CCl)cc1` [LX-405], in the assay on p16, MMP3, IL6, the “IL6 mRNA (%)” value was 68.7 (±9.1) %, the “MMP3 mRNA (%)” value was 80.5 (±2.8) % and the “p16 mRNA (%)” value was 72.4 (±3.9) %.
